This is an account of results in patent publication US20230416227A1, “PLASMA KALLIKREIN INHIBITORS” (Merck Sharp & Dohme LLC, priority 2020, published 2023).

As usually defined, the IC50 is the concentration that gives 50% inhibition.

The target in test [1] is T1, Human plasma kallikrein (Homo sapiens, UniProt P03952).
T1 construct: yields a heavy chain (371 amino acids) and a light chain (248 amino acids); purchased Enzyme Research Laboratories
Put plainly: Plasma Kallikrein Assay. The note with it: purified Human plasma kallikrein 0.5 nM, substrate Acetyl-K-P-R-AFC, pH 7.4. Format: biochemical.

The target of test [2] is human factor XIa (Homo sapiens, UniProt P03951). The experiment in a line: Factor XIa Assay. The test is classed as biochemical. The note with it: human factor XIa 0.04 nM, substrate GPR-AFC, 30 min pre-incubation at 25° C., pH 7.4; read-out: FXIa IC50.
human factor XIa, sequence (P03951 388-625 limits assumed): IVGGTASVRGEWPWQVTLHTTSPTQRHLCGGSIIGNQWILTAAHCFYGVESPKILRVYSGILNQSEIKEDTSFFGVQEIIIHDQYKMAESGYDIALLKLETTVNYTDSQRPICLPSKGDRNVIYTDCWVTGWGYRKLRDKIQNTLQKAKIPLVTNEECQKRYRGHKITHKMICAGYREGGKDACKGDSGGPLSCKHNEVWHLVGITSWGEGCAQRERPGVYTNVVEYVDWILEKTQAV
human factor XIa, sequence (P03951 19-387 partner limits assumed): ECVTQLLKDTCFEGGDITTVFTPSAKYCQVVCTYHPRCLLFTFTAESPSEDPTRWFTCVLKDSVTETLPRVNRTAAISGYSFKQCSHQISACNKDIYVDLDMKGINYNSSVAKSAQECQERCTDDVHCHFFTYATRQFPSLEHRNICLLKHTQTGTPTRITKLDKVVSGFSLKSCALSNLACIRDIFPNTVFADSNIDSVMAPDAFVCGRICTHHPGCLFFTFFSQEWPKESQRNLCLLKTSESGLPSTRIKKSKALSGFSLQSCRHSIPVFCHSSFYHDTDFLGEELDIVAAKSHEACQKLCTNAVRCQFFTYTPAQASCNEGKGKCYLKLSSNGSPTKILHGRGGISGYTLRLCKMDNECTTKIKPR

T1 sequence (P03952 391-638 limits assumed): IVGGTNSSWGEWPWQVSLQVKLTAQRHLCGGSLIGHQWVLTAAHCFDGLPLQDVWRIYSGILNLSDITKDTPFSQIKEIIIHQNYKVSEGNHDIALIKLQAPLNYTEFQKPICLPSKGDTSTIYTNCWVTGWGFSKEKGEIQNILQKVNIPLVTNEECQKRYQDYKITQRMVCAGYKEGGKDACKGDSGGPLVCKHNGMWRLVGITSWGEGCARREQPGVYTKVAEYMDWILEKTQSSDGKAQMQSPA
T1 sequence (P03952 20-390 partner limits assumed): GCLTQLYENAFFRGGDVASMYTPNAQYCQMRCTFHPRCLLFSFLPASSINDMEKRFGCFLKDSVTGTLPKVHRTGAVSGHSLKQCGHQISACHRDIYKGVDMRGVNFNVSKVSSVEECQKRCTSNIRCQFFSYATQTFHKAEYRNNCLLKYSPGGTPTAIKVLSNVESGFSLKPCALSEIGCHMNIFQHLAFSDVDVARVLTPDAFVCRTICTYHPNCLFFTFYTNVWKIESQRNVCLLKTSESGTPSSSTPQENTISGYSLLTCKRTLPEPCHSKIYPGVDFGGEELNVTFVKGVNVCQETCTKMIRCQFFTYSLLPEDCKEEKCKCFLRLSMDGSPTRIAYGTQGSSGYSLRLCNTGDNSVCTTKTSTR

In the case of `O=C(Nc1cnn(Cc2cnc(N3CCCC3CCO)nc2)c1)c1cncc(-c2c(C(F)F)ccc(Cl)c2F)n1` (single isomer, unassigned) [Example 102, (S or R)-6-(3-Chloro-6-(difluoromethyl)-2-fluorophenyl)-N-(1-((2-(2-(2-hydroxyethyl)pyrrolidin-1-yl)pyrimidin-5-yl)methyl)-1H-pyrazol-4-yl)pyrazine-2-carboxamide], the values for the IC50 in test [1] and in test [2] were 31.2 nM and 2250 nM, respectively.
As to `O=C(Nc1cnn(Cc2cnc(N3CCCC3CCO)nc2)c1)c1cncc(-c2c(C(F)F)ccc(Cl)c2F)n1` (single isomer, unassigned) [Example 105, (S or R)-6-(3-Chloro-6-(difluoromethyl)-2-fluorophenyl)-N-(1-((2-(2-(2-hydroxyethyl)pyrrolidin-1-yl)pyrimidin-5-yl)methyl)-1H-pyrazol-4-yl)pyrazine-2-carboxamide], the IC50 came out at 36.8 nM in test [1] and 3380 nM in test [2].
Regarding `O=C(Nc1cnn(C2CCc3cc(N4CCC4)ncc32)c1)c1cncc(-c2c(C(F)F)ccc(Cl)c2F)n1` (single isomer, unassigned) [Example 119, (R or S)-N-(1-(3-(Azetidin-1-yl)-6,7-dihydro-5H-cyclopenta[c]pyridin-7-yl)-1H-pyrazol-4-yl)-6-(3-chloro-6-(difluoromethyl)-2-fluorophenyl)pyrazine-2-carboxamide], the IC50 in test [1] came out at 14.5 nM; in test [2] it was 3580 nM.
The like results for `C[C@H](O)c1ncc(-c2c(C(F)F)ccc(Cl)c2F)nc1C(=O)Nc1cnn(Cc2cnc(N3CCC3)nc2)c1` (single isomer, unassigned) [Example 134] were, in that order, 9.4 nM and 852 nM.
Taken in the same sequence, the figures for `C[C@@H](O)c1ncc(-c2c(C(F)F)ccc(Cl)c2F)nc1C(=O)Nc1cnn(Cc2cnc(N3CCC3)nc2)c1` (single isomer, unassigned) [Example 135] were 2.8 nM and 120 nM.
Taken in the same sequence, the figures for `CN(CC1CCCN1c1ncc(Cn2cc(NC(=O)c3cncc(-c4c(C(F)F)ccc(Cl)c4F)n3)cn2)cn1)CC1(O)CC1` (single isomer, unassigned) [Example 140, (S or R)-6-(3-Chloro-6-(difluoromethyl)-2-fluorophenyl)-N-(1-((2-(2-((((1-hydroxycyclopropyl)methyl)(methyl)amino)methyl)pyrrolidin-1-yl)pyrimidin-5-yl)methyl)-1H-pyrazol-4-yl)pyrazine-2-carboxamide] were 0.2 nM and 1290 nM.
On to `CN(CC1CCCN1c1ncc(Cn2cc(NC(=O)c3cncc(-c4c(C(F)F)ccc(Cl)c4F)n3)cn2)cn1)CC1(O)CC1` (single isomer, unassigned) [Example 141, (R or S)-6-(3-Chloro-6-(difluoromethyl)-2-fluorophenyl)-N-(1-((2-(2-((((1-hydroxycyclopropyl)methyl)(methyl)amino)methyl)pyrrolidin-1-yl)pyrimidin-5-yl)methyl)-1H-pyrazol-4-yl)pyrazine-2-carboxamide], for which the IC50 was 0.3 nM in test [1] and 4730 nM in test [2].
Taken in the same sequence, the figures for `CC(c1cnc(N2C[C@H]3C[C@H]3C2C(=O)N(C)C)nc1)n1cc(NC(=O)c2cncc(-c3c(C(F)F)ccc(Cl)c3F)n2)cn1` (single isomer, unassigned) [Example 200, (1R,2S,5S or 1S,2R,5R)-3-(5-((R or S)-1-(4-(6-(3-Chloro-6-(difluoromethyl)-2-fluorophenyl)pyrazine-2-carboxamido)-1H-pyrazol-1-yl)ethyl)pyrimidin-2-yl)-N,N-dimethyl-3-azabicyclo[3.1.0]hexane-2-carboxamide] were 2.4 nM and 1120 nM.
Taken in the same sequence, the figures for `CC(c1cnc(N2C[C@H]3C[C@H]3C2C(=O)N(C)C)nc1)n1cc(NC(=O)c2cncc(-c3c(C(F)F)ccc(Cl)c3F)n2)cn1` (single isomer, unassigned) [Example 202, (1R,2S,5S or 1S,2R,5R)-3-(5-((R or S)-1-(4-(6-(3-Chloro-6-(difluoromethyl)-2-fluorophenyl)pyrazine-2-carboxamido)-1H-pyrazol-1-yl)ethyl)pyrimidin-2-yl)-N,N-dimethyl-3-azabicyclo[3.1.0]hexane-2-carboxamide] were 1 nM and 2260 nM.
The like results for `COc1ncc(-c2c(C(F)F)ccc(Cl)c2F)nc1C(=O)Nc1cnn(Cc2cnc(N3CCC3)nc2)c1` [Example 1, N-(1-((2-(Azetidin-1-yl)pyrimidin-5-yl)methyl)-1H-pyrazol-4-yl)-6-(3-chloro-6-(difluoromethyl)-2-fluorophenyl)-3-methoxypyrazine-2-carboxamide] were, in that order, 10.2 nM and 921 nM.
Regarding `O=C(Nc1cnn(Cc2cnc(N3CCC3)nc2CO)c1)c1cncc(-c2c(C(F)F)ccc(Cl)c2F)n1` [Example 2, N-(1-((2-(Azetidin-1-yl)-4-(hydroxymethyl)pyrimidin-5-yl)methyl)-1H-pyrazol-4-yl)-6-(3-chloro-6-(difluoromethyl)-2-fluorophenyl)pyrazine-2-carboxamide], the IC50 in test [1] worked out at 15.8 nM; in test [2], 1110 nM.
The like results for `C[C@@H](c1cnc(N2CCC2)nc1)n1cc(NC(=O)c2cncc(-c3c(C(F)F)ccc(Cl)c3F)n2)cn1` [Example 5, (S)-N-(1-(1-(2-(Azetidin-1-yl)pyrimidin-5-yl)ethyl)-1H-pyrazol-4-yl)-6-(3-chloro-6-(difluoromethyl)-2-fluorophenvl)pyrazine-2-carboxamide] were, in that order, 6.6 nM and 1350 nM.
Taken in the same sequence, the figures for `Cc1nc(N2CCC2)ncc1Cn1cc(NC(=O)c2cncc(-c3c(C(F)F)ccc(Cl)c3F)n2)cn1` [Example 8, N-(1-((2-(Azetidin-1-yl)-4-methylpyrimidin-5-yl)methyl)-1H-pyrazol-4-yl)-6-(3-chloro-6-(difluoromethyl)-2-fluorophenyl)pyrazine-2-carboxamide] were 4.2 nM and 458 nM.
Taken in the same sequence, the figures for `Cc1nc(N2CCC2)ccc1Cn1cc(NC(=O)c2cncc(-c3c(C(F)F)ccc(Cl)c3F)n2)cn1` [Example 9, N-(1-((6-(Azetidin-1-yl)-2-methylpyridin-3-yl)methyl)-1H-pyrazol-4-yl)-6-(3-chloro-6-(difluoromethyl)-2-fluorophenyl)pyrazine-2-carboxamide] were 5.2 nM and 5100 nM.
Take `Cc1nc(Cn2cc(NC(=O)c3cncc(-c4c(C(F)F)ccc(Cl)c4F)n3)cn2)cnc1N1CCC1` [Example 10, N-(1-((5-(Azetidin-1-yl)-6-methylpyrazin-2-yl)methyl)-1H-pyrazol-4-yl)-6-(3-chloro-6-(difluoromethyl)-2-fluorophenyl)pyrazine-2-carboxamide]: the IC50 in test [1] was determined as 5.2 nM; in test [2] it was 647 nM.
Taken in the same sequence, the figures for `Cc1ncc(-c2c(C(F)F)ccc(Cl)c2F)nc1C(=O)Nc1cnn(Cc2cnc(N3CC(F)(F)C3)c(C)n2)c1` [Example 11, 6-(3-Chloro-6-(difluoromethyl)-2-fluorophenyl)-N-(1-((5-(3,3-difluoroazetidin-1-yl)-6-methylpyrazin-2-yl)methyl)-1H-pyrazol-4-yl)-3-methylpyrazine-2-carboxamide] were 6.2 nM and 1710 nM.
Taken in the same sequence, the figures for `O=C(Nc1cnn(Cc2cnc(N3CCC3)c(F)c2)c1)c1cncc(-c2c(C(F)F)ccc(Cl)c2F)n1` [Example 12, N-(1-((6-(Azetidin-1-yl)-5-fluoropyridin-3-yl)methyl)-1H-pyrazol-4-yl)-6-(3-chloro-6-(difluoromethyl)-2-fluorophenyl)pyrazine-2-carboxamide] were 6.2 nM and 3510 nM.
For `O=C(Nc1cnn(Cc2cnc(N3CCC3)cn2)c1)c1cncc(-c2c(C(F)F)ccc(Cl)c2F)n1` [Example 13, N-(1-((5-(Azetidin-1-yl)pyrazin-2-yl)methyl)-1H-pyrazol-4-yl)-6-(3-chloro-6-(difluoromethyl)-2-fluorophenyl)pyrazine-2-carboxamide], the IC50 amounted to 7.2 nM in test [1] and 1840 nM in test [2].
The like results for `CCc1ncc(-c2c(C(F)F)ccc(Cl)c2F)nc1C(=O)Nc1cnn(Cc2cnc(N3CCC3)nc2)c1` [Example 14, N-(1-((2-(Azetidin-1-yl)pyrimidin-5-yl)methyl)-1H-pyrazol-4-yl)-6-(3-chloro-6-(difluoromethyl)-2-fluorophenyl)-3-ethylpyrazine-2-carboxamide] were, in that order, 8 nM and 312 nM.
Taken in the same sequence, the figures for `Cc1nc(Cn2cc(NC(=O)c3cncc(-c4c(C(F)F)ccc(Cl)c4F)n3)cn2)cnc1N1CC(F)(F)C1` [Example 15, 6-(3-Chloro-6-(difluoromethyl)-2-fluorophenyl)-N-(1-((5-(3,3-difluoroazetidin-1-yl)-6-methylpyrazin-2-yl)methyl)-1H-pyrazol-4-yl)pyrazine-2-carboxamide] were 8.1 nM and 3690 nM.
On to `N#Cc1cc(N2CCC2)ncc1Cn1cc(NC(=O)c2cncc(-c3c(C(F)F)ccc(Cl)c3F)n2)cn1` [Example 16, N-(1-((6-(Azetidin-1-yl)-4-cyanopyridin-3-yl)methyl)-1H-pyrazol-4-yl)-6-(3-chloro-6-(difluoromethyl)-2-fluorophenyl)pyrazine-2-carboxamide], for which the IC50 came to 8.4 nM in test [1] and 1050 nM in test [2].
The like results for `Cc1cc(N2CCC2)ncc1Cn1cc(NC(=O)c2cncc(-c3c(C(F)F)ccc(Cl)c3F)n2)cn1` [Example 17, N-(1-((6-(Azetidin-1-yl)-4-methylpyridin-3-yl)methyl)-1H-pyrazol-4-yl)-6-(3-chloro-6-(difluoromethyl)-2-fluorophenyl)pyrazine-2-carboxamide] were, in that order, 10.2 nM and 1370 nM.
In the case of `O=C(Nc1cnn(Cc2ccc(N3CCC3)nc2)c1)c1cncc(-c2c(C(F)F)ccc(Cl)c2F)n1` [Example 18, N-(1-((6-(Azetidin-1-yl)pyridin-3-yl)methyl)-1H-pyrazol-4-yl)-6-(3-chloro-6-(difluoromethyl)-2-fluorophenyl)pyrazine-2-carboxamide], the IC50 was 13.1 nM in test [1] and 2000 nM in test [2].
